In patent EP4644383A1 (Jiangsu Yahong Meditech Co., Ltd., priority 2022, dated 2024):
Like-named read-outs stand apart in the source and are kept apart here.

Experiments:
Format in all cases: biochemical
FGFR1 = target: T1, FGFR1 (Homo sapiens, UniProt P11362); assay: FGFR1 kinase activity inhibition assay (LanthaScreen TR-FRET)
T1 construct: cytoplasmic domain [398-822 (terminal) amino acids]; purchased Carna 08-133
How it was run: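 Emission ratio 520 nm/495 nm by TR-FRET after stopping reaction with 10 mM EDTA and 60 min incubation at 22°C. Inhibition normalized between no-enzyme (min) and DMSO (max) controls, then fitted to a four-parameter curve (Top, Bottom, HillSlope).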

FGFR2 = target: T2, FGFR2 (Homo sapiens, UniProt P21802); assay: FGFR2 kinase activity inhibition assay (LanthaScreen TR-FRET)
T2 construct: FGFR2's cytoplasmic domain [399-821 (terminal) amino acids]; purchased Carna 08-134
T2 sequence (P21802 399-821): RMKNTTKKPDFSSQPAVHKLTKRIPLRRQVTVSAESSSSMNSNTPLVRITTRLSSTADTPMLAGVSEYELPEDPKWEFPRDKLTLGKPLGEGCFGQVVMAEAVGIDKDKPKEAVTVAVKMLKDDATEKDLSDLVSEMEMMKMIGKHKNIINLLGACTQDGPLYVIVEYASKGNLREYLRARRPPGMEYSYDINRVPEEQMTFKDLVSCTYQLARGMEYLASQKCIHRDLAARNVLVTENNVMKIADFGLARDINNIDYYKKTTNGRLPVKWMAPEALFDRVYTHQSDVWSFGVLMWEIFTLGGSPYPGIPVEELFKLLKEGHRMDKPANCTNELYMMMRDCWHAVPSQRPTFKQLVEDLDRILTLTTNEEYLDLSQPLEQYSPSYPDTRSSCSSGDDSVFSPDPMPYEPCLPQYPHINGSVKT
Protocol: (§1) FGFR1 kinase activity was measured using Invitrogen LanthaScreen™ assay technology, which utilized fluorescently-labeled peptides and terbium-labeled antibodies to directly measure an amount of the phosphorylated substrate through time-resolved fluorescence energy transfer (TR-FRET). • ① The test compounds were diluted: starting from a concentration of 1 µM, with a buffer solution in a three-fold serial dilution, the buffer solution being composed of 50 mM HEPES, 10 mM MgCl2, 0.01% TritonX-100, 0.01% BSA, 4 mM DTT (pH 7.5), and 1% DMSO; • ② 0.01 nM recombinant human GST fusion protein FGFR1's cytoplasmic domain [398-822 (terminal) amino acids] (Carna: 08-133) was formulated into a 2 × solution, mixed well with the test compounds, and incubated at 23°C for 10 minutes; • ③ 28 nM Fluorescein-Poly GT peptide substrate (Life Technologies: PV3611) and 28 µM ATP were formulated into a 2 × solution, mixed well with the test compounds and enzyme in ②, and incubated at 23°C for 30 minutes; • ④ 10 µL of 2nM Tb-PY20 antibody (Life Technologies: PV3552) and 10 mM EDTA were added to quench the kinase reaction, and incubated at 22°C for 60 minutes. • ⑤ The reaction was measured using a PerkinElmer EnVision multimode plate reader through TR-FRET dual wavelength detection. • 1. The RFU values were copied from the Envision program. • 2. The ratio of RFU 520nm/RFU 495nm was calculated. • 3. The value of the ratio was converted to a percentage inhibition value. % Inhibition = (max-data)/(max-min) × 100 [formula]
(§2) "Min" represents the ratio of the control without enzyme, "max" represents the ratio of the DMSO control, and "data" represents the ratio of the compounds in wells with different concentrations.
(§3) "Top" refers to the maximum response, "Bottom" refers to the minimum response, and "HillSlope" refers to the slope of the curve.
According to the same method as that in the FGFR1 kinase activity inhibition assay, the inhibitory activities against FGFR2, FGFR3 and FGFR4 were tested using FGFR2's cytoplasmic domain [399-821 (terminal) amino acids] (Carna: 08-134), FGFR3's cytoplasmic domain [436-806 (terminal) amino acids] (Carna: 08-135) and FGFR4's cytoplasmic domain [460-802 (terminal) amino acids] (Carna: 08-136), respectively. […]

FGFR3 = target: T3, FGFR3 (Homo sapiens, UniProt P22607); assay: FGFR3 kinase activity inhibition assay (LanthaScreen TR-FRET); details: for Selectivity (X) FGFR1/FGFR3: ratio of IC50 FGFR1/FGFR3, selectivity towards FGFR3; for Selectivity (X) FGFR2/FGFR3: ratio of IC50 FGFR2/FGFR3, selectivity towards FGFR3; for Selectivity (X) FGFR4/FGFR3: ratio of IC50 FGFR4/FGFR3, selectivity towards FGFR3
T3 construct: FGFR3's cytoplasmic domain [436-806 (terminal) amino acids]; purchased Carna 08-135
T3 sequence (P22607 436-806): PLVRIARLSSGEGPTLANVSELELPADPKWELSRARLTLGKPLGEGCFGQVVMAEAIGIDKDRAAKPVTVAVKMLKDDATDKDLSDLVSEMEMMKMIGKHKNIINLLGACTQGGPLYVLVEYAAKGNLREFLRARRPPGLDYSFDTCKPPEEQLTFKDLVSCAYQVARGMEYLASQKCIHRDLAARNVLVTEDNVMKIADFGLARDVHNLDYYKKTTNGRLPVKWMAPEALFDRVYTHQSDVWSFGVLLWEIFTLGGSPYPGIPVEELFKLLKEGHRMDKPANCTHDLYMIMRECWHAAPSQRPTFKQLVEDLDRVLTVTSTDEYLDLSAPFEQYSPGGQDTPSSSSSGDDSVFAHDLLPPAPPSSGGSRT
How it was run: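 Read-out is TR-FRET, with the 520 nm/495 nm emission ratio normalised to DMSO (max) and enzyme-free (min) controls. Enzyme was the FGFR3 cytoplasmic domain, residues 436-806. EDTA (10 mM) stopped the reaction, followed by 60 min at 22 °C before reading.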

FGFR4 = target: T4, FGFR4 (Homo sapiens, UniProt P22455); assay: FGFR4 kinase activity inhibition assay (LanthaScreen TR-FRET)
T4 construct: FGFR4's cytoplasmic domain [460-802 (terminal) amino acids]; purchased Carna 08-136
T4 sequence (P22455 460-802): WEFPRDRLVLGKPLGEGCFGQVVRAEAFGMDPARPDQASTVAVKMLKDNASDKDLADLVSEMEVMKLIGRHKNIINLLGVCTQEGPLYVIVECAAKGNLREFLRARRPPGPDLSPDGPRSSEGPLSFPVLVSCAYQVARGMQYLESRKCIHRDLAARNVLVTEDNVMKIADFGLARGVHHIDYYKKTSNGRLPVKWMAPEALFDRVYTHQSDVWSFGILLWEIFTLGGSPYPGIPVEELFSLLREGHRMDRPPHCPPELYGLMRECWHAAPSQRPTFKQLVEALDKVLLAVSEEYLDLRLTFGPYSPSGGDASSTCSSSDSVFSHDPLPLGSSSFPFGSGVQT
Protocol: as §1, §2, §3
According to the same method as that in the FGFR1 kinase activity inhibition assay, the inhibitory activities against FGFR2, FGFR3 and FGFR4 were tested using FGFR2's cytoplasmic domain [399-821 (terminal) amino acids] (Carna: 08-134), FGFR3's cytoplasmic domain [436-806 (terminal) amino acids] (Carna: 08-135) and FGFR4's cytoplasmic domain [460-802 (terminal) amino acids] (Carna: 08-136), respectively. Table 1 reports the kinase activity inhibition results and selectivity towards FGFR3 of each compound.

[1] = FGFR1 kinase, TR-FRET, read-out: IC50 (nM) FGFR1
[2] = FGFR2 kinase, TR-FRET, read-out: IC50 (nM) FGFR2
[3] = FGFR3 kinase, TR-FRET, read-out: IC50 (nM) FGFR3
[4] = FGFR4 kinase, TR-FRET, read-out: IC50 (nM) FGFR4

T1 sequence (P11362 398-822): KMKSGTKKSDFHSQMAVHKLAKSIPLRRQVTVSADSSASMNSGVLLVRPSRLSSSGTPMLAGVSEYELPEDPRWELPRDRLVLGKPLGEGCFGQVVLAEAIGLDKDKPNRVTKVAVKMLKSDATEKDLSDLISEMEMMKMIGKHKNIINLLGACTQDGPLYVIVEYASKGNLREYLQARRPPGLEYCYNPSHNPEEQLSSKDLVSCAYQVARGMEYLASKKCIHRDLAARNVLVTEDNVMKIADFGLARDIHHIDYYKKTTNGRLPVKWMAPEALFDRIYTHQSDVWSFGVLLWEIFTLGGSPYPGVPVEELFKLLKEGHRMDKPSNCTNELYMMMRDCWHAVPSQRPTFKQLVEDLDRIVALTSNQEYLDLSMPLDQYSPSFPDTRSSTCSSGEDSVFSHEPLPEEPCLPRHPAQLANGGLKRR

Compound | IC50 (FGFR1; [1]) | IC50 (FGFR2; [2]) | IC50 (FGFR3; [3]) | Selectivity (X) FGFR1/FGFR3 (FGFR3) | Selectivity (X) FGFR2/FGFR3 (FGFR3) | Selectivity (X) FGFR4/FGFR3 (FGFR3) | IC50 (FGFR4; [4]) | IC50 (FGFR1) | IC50 (FGFR2) | IC50 (FGFR3) | IC50 (FGFR4)
C[C@@H](Oc1cc(F)c2[nH]nc(-c3cnn(CC4CC4)c3)c2c1)c1c(Cl)cncc1Cl [Example 14, (R)-3-(1-(cyclopropylmethyl)-1H-pyrazol-4-yl)-5-(1-(3,5-dichloropyridin-4-yl)ethoxy)-7-fluoro-1H-indazole] | 10 to 100 nM | 1 to 10 nM | 1 to 10 nM | A (A represents 1 ≤ multiple X<20) | A (A represents 1 ≤ multiple X<20) | A (A represents 1 ≤ multiple X<20) | 10 to 100 nM |  |  |  | 
C[C@@H](Oc1cc(F)c2[nH]nc(-c3cnn(CCN(C)C)c3)c2c1)c1c(Cl)cncc1Cl [Example 15, (R)-2-(4-(5-(1-(3,5-dichloropyridin-4-yl)ethoxy)-7-fluoro-1H-indazol-3-yl)-1H-pyrazol-1-yl)-N,N-dimethylethan-1-amine] | 10 to 100 nM | 1 to 10 nM | 1 to 10 nM | A (A represents 1 ≤ multiple X<20) | A (A represents 1 ≤ multiple X<20) | C (C represents 50 ≤ multiple X<100) | > 100 nM |  |  |  | 
C[C@@H](Oc1cc(F)c2[nH]nc(-c3cnn(CCCN(C)C)c3)c2c1)c1c(Cl)cncc1Cl [Example 17, (R)-3-(4-(5-(1-(3,5-dichloropyridin-4-yl)ethoxy)-7-fluoro-1H-indazol-3-yl)-1H-pyrazol-1-yl)-N,N-dimethylpropan-1-amine] | 1 to 10 nM | < 1 nM | < 1 nM | A (A represents 1 ≤ multiple X<20) | A (A represents 1 ≤ multiple X<20) | D (D represents 100 ≤ multiple X) | > 100 nM |  |  |  | 
C[C@@H](Oc1ccc2[nH]nc(-c3cnn(Cc4cccnc4)c3)c2n1)c1c(Cl)cncc1Cl [Example 28, (R)-5-(1-(3,5-dichloropyridin-4-yl)ethoxy)-3-(1-(pyridin-3-ylmethyl)-1H-pyrazol-4-yl)-1H-pyrazolo[4,3-b]pyridine] |  |  |  | A (A represents 1 ≤ multiple X<20) | A (A represents 1 ≤ multiple X<20) | A (A represents 1 ≤ multiple X<20) |  | 1 to 10 nM | < 1 nM | < 1 nM | 1 to 10 nM
C[C@@H](Oc1ccc2[nH]nc(-c3cnn(CCN4CCOCC4)c3)c2n1)c1c(Cl)cncc1Cl [Example 31, (R)-4-(2-(4-(5-(1-(3,5-dichloropyridin-4-yl)ethoxy)-1H-pyrazolo[4,3-b]pyridin-3-yl)-1H-pyrazol-1-yl)ethyl)morpholine] |  |  |  | B (B represents 20 ≤ multiple X<50) | A (A represents 1 ≤ multiple X<20) | B (B represents 20 ≤ multiple X<50) |  | 1 to 10 nM | < 1 nM | < 1 nM | 10 to 100 nM

Second part, led by results:

IC50 (FGFR1; [1]) | IC50 (FGFR2; [2]) | IC50 (FGFR3; [3]) | Selectivity (X) FGFR1/FGFR3 (FGFR3) | Selectivity (X) FGFR2/FGFR3 (FGFR3) | Selectivity (X) FGFR4/FGFR3 (FGFR3) | IC50 (FGFR4; [4]) | Compound | IC50 (FGFR1) | IC50 (FGFR2) | IC50 (FGFR3) | IC50 (FGFR4)
10 to 100 nM | 1 to 10 nM | 1 to 10 nM | B (B represents 20 ≤ multiple X<50) | A (A represents 1 ≤ multiple X<20) | D (D represents 100 ≤ multiple X) | > 100 nM | C[C@@H](Oc1cc(F)c2[nH]nc(-c3cnn(CCN4CCCCC4)c3)c2c1)c1c(Cl)cncc1Cl [Example 23, (R)-5-(1-(3,5-dichloropyridin-4-yl)ethoxy)-7-fluoro-3-(1-(2-(piperidin-1-yl)ethyl)-1H-pyrazol-4-yl)-1H-indazole] |  |  |  | 
10 to 100 nM | 1 to 10 nM | < 1 nM | A (A represents 1 ≤ multiple X<20) | A (A represents 1 ≤ multiple X<20) | C (C represents 50 ≤ multiple X<100) | 10 to 100 nM | C[C@@H](Oc1cc(F)c2[nH]nc(-c3cnn(CCN4CCS(=O)(=O)CC4)c3)c2c1)c1c(Cl)cncc1Cl [Example 24, (R)-4-(2-(4-(5-(1-(3,5-dichloropyridin-4-yl)ethoxy)-7-fluoro-1H-indazol-3-yl)-1H-pyrazol-1-yl)ethyl)thiomo rpholine 1,1-dioxide] |  |  |  | 
> 100 nM | 10 to 100 nM | 1 to 10 nM | B (B represents 20 ≤ multiple X<50) | A (A represents 1 ≤ multiple X<20) | C (C represents 50 ≤ multiple X<100) | > 100 nM | Cc1cc(O[C@H](C)c2c(Cl)cncc2Cl)cc2c(-c3cnn(CCN4CCOCC4)c3)n[nH]c12 [Example 27, (R)-4-(2-(4-(5-(1-(3,5-dichloropyridin-4-yl)ethoxy)-7-methyl-1H-indazol-3-yl)-1H-pyrazol-1-yl)ethyl)morpholine] |  |  |  | 
1 to 10 nM | < 1 nM | < 1 nM | A (A represents 1 ≤ multiple X<20) | A (A represents 1 ≤ multiple X<20) | B (B represents 20 ≤ multiple X<50) | 10 to 100 nM | C[C@@H](Oc1ccc2[nH]nc(-c3cnn(C4CCN(C(=O)CO)C4)c3)c2n1)c1c(Cl)cncc1Cl (stereo partly drawn) [Example 59, 1-(3-(4-(5-((R)-1-(3,5-dichloropyridin-4-yl)ethoxy)-1H-pyrazolo[4,3-b]pyridin-3-yl)-1H-pyrazol-1-yl)pyrrolidin-1-yl)-2-hydroxyethan-1-one] |  |  |  | 
10 to 100 nM | 1 to 10 nM | 1 to 10 nM | A (A represents 1 ≤ multiple X<20) | A (A represents 1 ≤ multiple X<20) | B (B represents 20 ≤ multiple X<50) | 10 to 100 nM | C[C@@H](Oc1ccc2[nH]nc(-c3cnn(CCn4ccnc4)c3)c2n1)c1c(Cl)cncc1Cl [Example 60, (R)-3-(1-(2-(1H-imidazol-1-yl)ethyl)-1H-pyrazol-4-yl)-5-(1-(3,5-dichloropyridin-4-yl)ethoxy)-1H-pyrazolo[4,3-b]pyridine] |  |  |  | 
10 to 100 nM | 1 to 10 nM | 1 to 10 nM | A (A represents 1 ≤ multiple X<20) | A (A represents 1 ≤ multiple X<20) | B (B represents 20 ≤ multiple X<50) | 10 to 100 nM | C[C@@H](Oc1ccc2[nH]nc(-c3cnn(CCc4cccnc4)c3)c2n1)c1c(Cl)cncc1Cl [Example 61, (R)-5-(1-(3,5-dichloropyridin-4-yl)ethoxy)-3-(1-(2-(pyridin-3-yl)ethyl)-1H-pyrazol-4-yl)-1H-pyrazolo[4,3-b]pyridine] |  |  |  | 
1 to 10 nM | 1 to 10 nM | < 1 nM | A (A represents 1 ≤ multiple X<20) | A (A represents 1 ≤ multiple X<20) | D (D represents 100 ≤ multiple X) | 10 to 100 nM | C[C@@H](Oc1ccc2[nH]nc(-c3cnn(CCN4CCC5(CCNC5=O)CC4)c3)c2n1)c1c(Cl)cncc1Cl [Example 62, (R)-8-(2-(4-(5-(1-(3,5-dichloropyridin-4-yl)ethoxy)-1H-pyrazolo[4,3-b]pyridin-3-yl)-1H-pyrazol-1-yl)ethyl)-2,8-diazaspiro[4.5]dec an-1-one] |  |  |  | 
